Like-named read-outs stand apart in the source and are kept apart here.
What was measured:
Human Full Length PARG = Human Full Length PARG (Homo sapiens (Human), UniProt Q86W56); assay: PARG enzyme assay (TR-FRET); format: biochemical
PARG in HeLa cell line = assay: PARG cell assay (PAR chain immunofluorescence after MMS); format: cell-based; details: HeLa cells
Outline: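 Nuclear poly(ADP-ribose) chains in HeLa cells are read by indirect immunofluorescence with a mouse anti-PAR antibody applied overnight at 4° C after fixing and permeabilising. Cells get 1 h of compound, then 50 μg/mL MMS (final) for another hour. PAR persisting at that point reflects PARG inhibition.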

[1] = Homo sapiens, MMS treatment, read-out: PARG Cell IC50
[2] = read-out: PARG Biochem IC50 Geomean
[3] = Homo sapiens, MMS 50 μg/mL, read-out: PARG Cell IC50 Geomean
[4] = MMS treatment, read-out: PARG Cell IC50
[5] = MMS 50 μg/mL, read-out: PARG Cell IC50 Geomean

Human Full Length PARG, sequence (Q86W56 whole entry): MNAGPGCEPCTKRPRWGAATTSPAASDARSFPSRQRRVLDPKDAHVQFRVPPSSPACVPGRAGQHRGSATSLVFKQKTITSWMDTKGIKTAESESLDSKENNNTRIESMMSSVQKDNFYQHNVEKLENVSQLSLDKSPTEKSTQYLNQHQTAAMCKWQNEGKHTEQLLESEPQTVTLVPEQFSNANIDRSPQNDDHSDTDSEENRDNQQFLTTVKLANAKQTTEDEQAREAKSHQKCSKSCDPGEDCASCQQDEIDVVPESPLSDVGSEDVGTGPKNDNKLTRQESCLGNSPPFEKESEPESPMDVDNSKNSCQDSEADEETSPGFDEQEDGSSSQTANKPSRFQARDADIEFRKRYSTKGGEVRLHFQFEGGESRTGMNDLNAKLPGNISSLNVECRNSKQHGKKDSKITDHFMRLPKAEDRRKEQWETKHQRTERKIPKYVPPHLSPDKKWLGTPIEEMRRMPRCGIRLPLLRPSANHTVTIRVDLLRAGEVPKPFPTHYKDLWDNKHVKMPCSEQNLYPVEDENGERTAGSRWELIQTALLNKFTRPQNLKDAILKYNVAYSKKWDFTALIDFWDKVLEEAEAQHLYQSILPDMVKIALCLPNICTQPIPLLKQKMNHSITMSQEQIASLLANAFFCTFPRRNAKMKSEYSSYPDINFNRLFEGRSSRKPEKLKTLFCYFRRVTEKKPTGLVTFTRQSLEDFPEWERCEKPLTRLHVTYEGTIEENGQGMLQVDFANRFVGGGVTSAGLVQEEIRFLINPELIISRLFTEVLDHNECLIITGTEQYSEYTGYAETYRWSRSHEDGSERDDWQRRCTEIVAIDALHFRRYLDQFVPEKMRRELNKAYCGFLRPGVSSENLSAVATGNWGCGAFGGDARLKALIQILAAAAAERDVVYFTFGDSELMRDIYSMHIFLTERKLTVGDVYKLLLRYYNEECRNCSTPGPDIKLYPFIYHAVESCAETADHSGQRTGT

IC50 (Human Full Length PARG; read-out: PARG Biochem IC50) [µM] | IC50 (PARG in HeLa cell line; [1]) [µM] | IC50 (Human Full Length PARG; [2]) [µM] | IC50 (PARG in HeLa cell line; [3]) [µM] | Structure (SMILES) | further results
0.05 | 0.312 | – | – | Cc1cc(Cn2c(=O)c3cc(S(=O)(=O)NC4(CF)CC4)ccc3n(Cc3cc(C)nn3C)c2=O)on1 [Example 519, 1-[(2,5-Dimethylpyrazol-3-yl)methyl]-N-[1-(fluoromethyl)cyclopropyl]-3-[(3-methylisoxazol-5-yl)methyl]-2,4-dioxo-quinazoline-6-sulfonamide] | –
– | – | 0.069 | 0.272 | Cn1cc(Cn2c(=O)c3cc(S(=O)(=O)NC4(C)CC4)ccc3n(CC3COC3)c2=O)cn1 [Example 297] | –
– | – | 0.246 | 0.409 | CC1CC1Cn1c(=O)n(C)c(=O)c2cc(S(=O)(=O)NC3(C)CC3)ccc21 (stereo not drawn) [Example 35] | –
0.085 | 0.096 | – | – | Cn1cc(Cn2c(=O)c3cc(S(=O)(=O)NC4(CF)CC4)ccc3n(Cc3cnn(C)n3)c2=O)cn1 [Example 596, N-[1-(Fluoromethyl)cyclopropyl]-3-[(1-methylpyrazol-4-yl)methyl]-1-[(2-methyltriazol-4-yl)methyl]-2,4-dioxo-quinazoline-6-sulfonamide] | –
0.208 | – | – | – | Cc1cc(Cn2c(=O)c3cc(S(=O)(=O)NC4(C)CC4)ccc3n(CC3CC(C)(C)C3)c2=O)on1 [Example 477, 1-[(3,3-Dimethylcyclobutyl)methyl]-N-(1-methylcyclopropyl)-3-[(3-methylisoxazol-5-yl)methyl]-2,4-dioxo-quinazoline-6-sulfonamide] | IC50 (PARG in HeLa cell line; [4]): 0.403 µM
– | – | 0.21 | 0.916 | CCn1c(=O)n(Cc2cnn(C)c2)c(=O)c2cc(S(=O)(=O)NC3(C#N)CC3)ccc21 [Example 347] | –
0.333 | 0.487 | – | – | Cn1cc(Cn2c(=O)c3cc(S(=O)(=O)NC4(C(F)F)CC4)ccc3n(Cc3ccc(F)cc3)c2=O)cn1 [Example 460, N-[1-(Difluoromethyl)cyclopropyl]-1-[(4-fluorophenyl)methyl]-3-[(1-methylpyrazol-4-yl)methyl]-2,4-dioxo-quinazoline-6-sulfonamide] | –
0.489 | 0.741 | – | – | Cc1cc(Cn2c(=O)c(Cc3cnn(C)c3)cc3cc(S(=O)(=O)NC4(C)CC4)ccc32)n(C)n1 [Example 492, 1-[(2,5-Dimethylpyrazol-3-yl)methyl]-N-(1-methylcyclopropyl)-3-[(1-methylpyrazol-4-yl)methyl]-2-oxo-quinoline-6-sulfonamide] | –
– | – | 0.111 | 0.217 | Cc1cc(Cn2c(=O)c3cc(S(=O)(=O)NC4(C)CC4)ccc3n(CC3CCOC3)c2=O)on1 (stereo not drawn) [Example 268] | –
– | – | 0.294 | – | COc1cccc(Cn2c(=O)n(Cc3c(C)noc3C)c(=O)c3cc(S(=O)(=O)NC4(C)CC4)ccc32)c1 [Example 169] | IC50 (PARG in HeLa cell line; [5]): 0.288 µM
0.784 | – | – | – | Cc1cc(Cn2c(=O)n(Cc3cnn(C)c3)c(=O)c3cc(S(=O)(=O)NC(C)(C)C)ccc32)n(C)n1 [Example 480] | IC50 (PARG in HeLa cell line; [4]): 1.53 µM
– | – | 0.146 | 2.14 | CN1CCC(Cn2c(=O)n(Cc3cnn(C)c3)c(=O)c3cc(S(=O)(=O)NC4(C)CC4)ccc32)CC1 [Example 372] | –
– | – | 0.122 | 0.953 | C#CCn1c(=O)n(Cc2cnn(C)c2)c(=O)c2cc(S(=O)(=O)NC3(C#N)CC3)ccc21 [Example 355] | –
0.069 | 0.046 | – | – | Cc1nc(Cn2c(=O)n(Cc3cnn(C)c3)c(=O)c3cc(S(=O)(=O)NC4(CF)CC4)ccc32)co1 [Example 580, N-[1-(Fluoromethyl)cyclopropyl]-1-[(2-methyloxazol-4-yl)methyl]-3-[(1-methylpyrazol-4-yl)methyl]-2,4-dioxo-quinazoline-6-sulfonamide] | –
– | – | 0.047 | 0.113 | Cc1cc(Cn2c(=O)n(Cc3cnn(C)c3)c(=O)c3cc(S(=O)(=O)NC4(C)CC4)c(F)cc32)n(C)n1 [Example 392, 1-[(2,5-Dimethylpyrazol-3-yl)methyl]-7-fluoro-N-(1-methylcyclopropyl)-3-[(1-methylpyrazol-4-yl)methyl]-2,4-dioxo-quinazoline-6-sulfonamide] | –
0.499 | 0.604 | – | – | Cc1cc(Cn2c(=O)c3cc(S(=O)(=O)NC4(CF)CC4)ccc3n(Cc3nc(C)nn3C)c2=O)on1 [Example 554, 1-[(2,5-Dimethyl-1,2,4-triazol-3-yl)methyl]-N-[1-(fluoromethyl)cyclopropyl]-3-[(3-methylisoxazol-5-yl)methyl]-2,4-dioxo-quinazoline-6-sulfonamide] | –
0.16 | 0.096 | – | – | Cn1cc(Cn2c(=O)c3cc(S(=O)(=O)NC4(CF)CC4)ccc3n(Cc3cccc(F)n3)c2=O)cn1 [Example 540, N-[1-(Fluoromethyl)cyclopropyl]-1-[(6-fluoro-2-pyridyl)methyl]-3-[(1-methylpyrazol-4-yl)methyl]-2,4-dioxo-quinazoline-6-sulfonamide] | –
0.207 | 0.177 | – | – | Cc1cc(Cn2c(=O)c3cc(S(=O)(=O)NC4(CF)CC4)ccc3n(Cc3noc(C)n3)c2=O)on1 [Example 558, N-[1-(Fluoromethyl)cyclopropyl]-3-[(3-methylisoxazol-5-yl)methyl]-1-[(5-methyl-1,2,4-oxadiazol-3-yl)methyl]-2,4-dioxo-quinazoline-6-sulfonamide] | –

More lines, now with the values behind:

Structure (SMILES) | IC50 (Human Full Length PARG; read-out: PARG Biochem IC50) [µM] | IC50 (PARG in HeLa cell line; [1]) [µM] | IC50 (Human Full Length PARG; [2]) [µM] | IC50 (PARG in HeLa cell line; [3]) [µM] | further results
Cn1cc(Cn2c(=O)c3cc(S(=O)(=O)NC4(C)CC4)ccc3n(CC3(F)COC3)c2=O)cn1 [Example 348] | – | – | 0.101 | 0.328 | –
Cn1cc(Cn2c(=O)c3cc(S(=O)(=O)NC4(C)CC4)c(F)cc3n(CC3COC3)c2=O)cn1 [Example 394, 7-Fluoro-N-(1-methylcyclopropyl)-3-[(1-methylpyrazol-4-yl)methyl]-1-(oxetan-3-ylmethyl)-2,4-dioxo-quinazoline-6-sulfonamide] | – | – | 0.066 | 0.326 | –
CN(C)C(=O)c1cc(S(=O)(=O)NC2(C)CC2)cc2c(=O)n(Cc3cnn(C)c3)c(=O)[nH]c12 [Example 449, N,N-Dimethyl-6-[(1-methylcyclopropyl)sulfamoyl]-3-[(1-methylpyrazol-4-yl)methyl]-2,4-dioxo-1H-quinazoline-8-carboxamide] | 5.78 | 13.2 | – | – | –
Cn1cc(Cn2c(=O)c3cc(S(=O)(=O)NC4(CF)CC4)ccc3n(CC3CCCO3)c2=O)cn1 (stereo not drawn) [Example 619, N-[1-(Fluoromethyl)cyclopropyl]-3-[(1-methylpyrazol-4-yl)methyl]-2,4-dioxo-1-(tetrahydrofuran-2-ylmethyl)quinazoline-6-sulfonamide] | 0.19 | 0.233 | – | – | –
Cc1cc(Cn2c(=O)n(CC#N)c(=O)c3cc(S(=O)(=O)NC4(C)CC4)ccc32)n(C)n1 [Example 192] | – | – | 0.274 | – | IC50 (PARG in HeLa cell line; [5]): 1.1 µM
Cn1cc(Cn2c(=O)c3cc(S(=O)(=O)NC4(C)CC4)c(F)cc3n(C)c2=O)cn1 [Example 385, 7-Fluoro-1-methyl-N-(1-methylcyclopropyl)-3-[(1-methylpyrazol-4-yl)methyl]-2,4-dioxo-quinazoline-6-sulfonamide] | – | – | 0.341 | 0.184 | –
Cn1cc(Cn2c(=O)[nH]c3ccc(S(=O)(=O)NC4(C(F)F)CC4)cc3c2=O)cn1 [Example 456, N-[1-(Difluoromethyl)cyclopropyl]-3-[(1-methylpyrazol-4-yl)methyl]-2,4-dioxo-1H-quinazoline-6-sulfonamide] | 4.11 | – | – | – | IC50 (PARG in HeLa cell line; [4]): 5.59 µM
Cc1ncc(Cn2c(=O)n(Cc3cnn(C)c3)c(=O)c3cc(S(=O)(=O)NC4(CF)CC4)ccc32)s1 [Example 594, N-[1-(Fluoromethyl)cyclopropyl]-3-[(1-methylpyrazol-4-yl)methyl]-1-[(2-methylthiazol-5-yl)methyl]-2,4-dioxo-quinazoline-6-sulfonamide] | 0.025 | 0.022 | – | – | –
Cn1cc(Cn2c(=O)c3cc(S(=O)(=O)NC4(C(F)F)CC4)ccc3n(CC3CC3)c2=O)cn1 [Example 458, 1-(Cyclopropylmethyl)-N-[1-(difluoromethyl)cyclopropyl]-3-[(1-methylpyrazol-4-yl)methyl]-2,4-dioxo-quinazoline-6-sulfonamide] | 1.07 | 0.555 | – | – | –
Cn1cc(Cn2c(=O)c3cc(S(=O)(=O)NC4(C)CC4)ccc3n(CCF)c2=O)cn1 [Example 410, 1-(2-Fluoroethyl)-N-(1-methylcyclopropyl)-3-[(1-methylpyrazol-4-yl)methyl]-2,4-dioxo-quinazoline-6-sulfonamide] | 0.263 | 0.126 | – | – | –
Cc1cc(Cn2c(=O)c3cc(S(=O)(=O)NC4(CF)CC4)ccc3n(Cc3nncn3C)c2=O)on1 [Example 551, N-[1-(Fluoromethyl)cyclopropyl]-3-[(3-methylisoxazol-5-yl)methyl]-1-[(4-methyl-1,2,4-triazol-3-yl)methyl]-2,4-dioxo-quinazoline-6-sulfonamide] | 0.404 | 20.4 | – | – | –
Cc1cc(Cn2nc(C3CC3)c3ccc(S(=O)(=O)NC4(C)CC4)cc3c2=O)on1 [Example 313] | – | – | 0.349 | – | IC50 (PARG in HeLa cell line; [5]): 0.42 µM
COCCn1c(=O)n(Cc2cnn(C)c2)c(=O)c2cc(S(=O)(=O)NC3(CF)CC3)ccc21 [Example 462, N-[1-(Fluoromethyl)cyclopropyl]-1-(2-methoxyethyl)-3-[(1-methylpyrazol-4-yl)methyl]-2,4-dioxo-quinazoline-6-sulfonamide] | 0.244 | 0.322 | – | – | –
CCC(=O)Cn1c(=O)n(Cc2cnn(C)c2)c(=O)c2cc(S(=O)(=O)NC3(CF)CC3)ccc21 [Example 620, N-[1-(Fluoromethyl)cyclopropyl]-3-[(1-methylpyrazol-4-yl)methyl]-2,4-dioxo-1-(2-oxobutyl)quinazoline-6-sulfonamide] | 0.144 | 0.238 | – | – | –
Cn1cc(Cn2c(OCC3(C)COC3)nc3cc(F)c(S(=O)(=O)NC4(C)CC4)cc3c2=O)cn1 [Example 397, 7-Fluoro-3-((1-methyl-1H-pyrazol-4-yl)methyl)-N-(1-methylcyclopropyl)-2-((3-methyloxetan-3-yl)methoxy)-4-oxo-3,4-dihydroquinazoline-6-sulfonamide] | 0.282 | 0.256 | – | – | –
